For one assay, the target named is T1, aromatase (Homo sapiens, UniProt P11511).
T1 construct: 800 μl cell suspension (1 million cells); endogenous in cells; host or cells: JEG-3 human choriocarcinoma cells
T1 sequence (P11511 1-503): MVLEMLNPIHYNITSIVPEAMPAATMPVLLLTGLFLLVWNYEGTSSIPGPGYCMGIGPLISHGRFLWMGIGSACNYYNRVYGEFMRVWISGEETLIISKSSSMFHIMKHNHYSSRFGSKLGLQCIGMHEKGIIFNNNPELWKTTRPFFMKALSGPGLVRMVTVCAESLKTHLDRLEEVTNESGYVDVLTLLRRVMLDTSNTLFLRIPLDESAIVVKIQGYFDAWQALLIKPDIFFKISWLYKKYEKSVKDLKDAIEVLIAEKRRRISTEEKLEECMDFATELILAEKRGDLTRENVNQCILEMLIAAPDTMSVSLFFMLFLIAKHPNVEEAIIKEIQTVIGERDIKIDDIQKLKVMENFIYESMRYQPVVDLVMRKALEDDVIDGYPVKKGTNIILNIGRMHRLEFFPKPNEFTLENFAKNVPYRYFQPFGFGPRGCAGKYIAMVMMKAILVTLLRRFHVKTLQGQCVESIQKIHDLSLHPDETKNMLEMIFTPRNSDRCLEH
In words: Aromatase inhibiting capacity in JEG-3 cells (3H-17β-estradiol formation from 3H-androstenedione). The format is cell-based. The following applies: 4 h incubation, FIG. 1. Here is the method:
The effects of HMR and structurally related lignans (enterolactone, enterodiol and 7-hydroxyenterolactone) were studied on formation of ^3H-17β-estradiol from ^3H-andostenedione in JEG-3 cells, human choriocarcinoma cell line. […] Cells were maintained in DMEM containing 10% fetal calf serum (FCS). The incubation mixture contained 50 μl ^3H-androst-4-ene, 3,17-dione (0.5 nM), 50 μl unlabelled androstenedione (0.5 nM), 100 μl test compounds (10 mM) and 800 μl cell suspension (1 million cells). After the incubation for 4 h, unlabelled carriers (androstenedione, testosterone, 17β-estradiol and estrone) were added. The steroids were extracted twice with 3.0 ml dichloromethane. […] The column system consisted of a guard column followed by a C18 150×3.9 mm ID analytical column (Technopak 10 C18 HPLC Technology; Wellington House, Cheshire, UK). The mobile phase was acetonitrile/water (35/65) and the flow rate was 1.2 ml/min. For in-line detection of the radioactive metabolites, the eluent of the HPCL column was continuously mixed with liquid scintillant and then monitored with in-line radioactivity detector.

For assay [1], the system named is tert-butylhydroperoxide-induced lipid peroxidation (t-BuOOH-LP) in rat liver microsomes. Nature of the assay: Inhibition of tert-butylhydroperoxide-induced lipid peroxidation (t-BuOOH-LP), chemiluminescence. The format is biochemical. Here is the method: Inhibition of lipid peroxidation was evaluated on the basis of their potency to inhibit tert-butylhydroperoxide-induced lipid peroxidation (t-BuOOH-LP) in rat liver microsomes in vitro (Ahotupa et al. 1997). The test for the t-BuOOH-LP was carried out as follows: The buffer (50 mM sodium carbonate, pH 10.2, with 0.1 mM EDTA) was pipetted in a volume of 0.8 ml in the luminometer cuvette. Twenty microliters of diluted liver microsomes, final concentration 1.5 mg protein/ml, was added, followed by […] of luminol (0.5 mg/ml) and test chemicals. The test compounds were added to incubation mixtures in a small volume diluted in ethanol or dimethylsulphoxide (2% of incubation volume), and the lipid peroxidation potency was compared to that of the vehicle (ethanol or dimethyl sulphoxide). The reaction was initiated by 0.05 ml of 0.9 mM t-BuOOH at 33° C. Chemiluminescence was measured for about 45 min at 1 min cycles, and the area under curve (integral) was calculated. Chemiluminescence measurements were carried out using a Bio-Orbit 1251 Luminometer (Bio-Orbit, Turku, Finland) connected to a personal computer using dedicated software for the assays.

A short description of assay [2]: Superoxide anion scavenging (xanthine-xanthine oxidase system, chemiluminescence). The format is biochemical. Conditions: read-out: Superoxide anion scavenging, IC-50. Here is the method: Superoxide anion scavenging method was based on the superoxide anion produced in controlled conditions by xanthine-xanthine oxidase system and detection of the generated reactive oxygen species by luminometer (Ahotupa et al., 1997). The ability of test compounds to decrease the chemiluminescence was evaluated. IC-50 concentration (concentration which prevented the chemiluminescence by 50%) was calculated.

The test system of assay [3] is uterine growth of immature rats. In words: Immature rat uterotropic test. Type of assay: in vivo. The following applies: methodological control for non-estrogen-stimulated uterus. On the procedure:
The estrogenicity HMR was evaluated by the uterotropic assay in immature rats which was performed as described earlier (Jordan et al. 1977), with the exception of treatment time which was 7 days instead of 3 days in the reference study. The treatment time was longer because of the expected weak estrogenicity of the test compound. The treatment of immature rats with an aromatase inhibitor (MPV-2213 ad), which prevents biosynthesis of estradiol, was used as a methodological control for non-estrogen-stimulated uterus.

Assay [4] relates to low density lipoprotein (LDL) oxidation. In words: Inhibition of LDL oxidation (CuCl2-induced, absorbance at 234 nm). Type of assay: biochemical. The following applies: CuCl2, 3 hrs at +37° C.; read-out: Inhibition of LDL oxidation, IC-50. On the procedure:
Inhibition of LDL oxidation was estimated as described by Ahotupa et al, 1996. Shortly: LDL was isolated by precipitation with buffered heparin. After resuspendation in phosphate buffer, 20 mM CuCl2 was added and the mixture was incubated for 3 hrs at +37° C. After this, LDL lipids were extracted with chloroform-methanol, dried under nitrogen, redissolved in cyclohexane and analyzed spectrophotometrically at 234 nm. The intensity of absorbance is indicative of LDL oxidation. To test the ability of different compounds to prevent LDL oxidation, the compounds were added to the incubation mixture prior addition of CuCl2. Possible interference of test compounds with the assay procedure was excluded by measuring the absorption at 234 nm before and after the incubation period.

Another assay relates to MCF-7 cells. Conditions: Mousavi and Adlercreutz 1992; cited from earlier work.
A further assay deals with mouse uterine weight. Conditions: Setchell et al. 1981; cited from earlier work.
For assay [5], the system named is antiestrogen-sensitive DMBA-induced breast cancer. The following applies: supplementation of a high-fat diet, rat; Serraino and Thompson, Thompson et al.; cited from earlier work.
The test system of assay [6] is chemically induced aberrant crypts in rat colon. Conditions: diet supplementation; Serraino and Thompson 1992, Jenab and Thompson 1996; cited from earlier work.
The next assay concerns uterine weight. Conditions: feeding during pregnancy and lactation to rats; effect not evident at later stages; Tou et al. 1998; cited from earlier work.
[7] abbreviates: Table 3 comparison with known antioxidants, read-out: Inhibition of lipid peroxidation, IC-50.
Setting [8] is: lipid peroxidation inhibition test, rat liver microsomes, Table 2, read-out: Antioxidative capacity (t-BuOOH-LP) IC50.

Where two headings read alike, the source gives them in different places.

For `O=C1OC[C@H](Cc2cccc(O)c2)[C@H]1[C@@H](O)c1cccc(O)c1` [7-hydroxyenterolactone], on aromatase, the “Inhibition of aromatization (3H-17β-estradiol formation from 3H-androstenedione)” value (from here on “Inhibition of aromatization”) was “no inhibitory effects”. `COc1ccc(O)c(C(C)(C)C)c1` [BHA, Butylated hydroxyanisol]: the IC50 in assay [1] (setting [7]) worked out at 1.1 µM; in assay [2], 0.015 mM.

In the case of `Cc1cc(C(C)(C)C)c(O)c(C(C)(C)C)c1` [BHT, Butylated hydroxytoluene], the values for the IC50 in assay [1] (setting [7]) and in assay [2] (value in mM) were 15.3 µM and more than 1 mM, respectively. In the case of `N#Cc1ccc(C(C(O)Cc2ccc(F)cc2)n2cncn2)cc1` (stereo not drawn) [MPV-2213 ad, reference compound], in [3], the “Effect on increase of uterine weight” value was “prevented the increase of uterine weight”.

In the case of `Cc1c(C)c2c(c(C)c1O)CCC(C)(C(=O)O)O2` (stereo not drawn) [TROLOX], the results for the IC50 in [1] (setting [7]), in assay [4] and in [2] were 0.02 µM, 2.7 µM and 0.025 mM, respectively. Regarding `OCC(Cc1cccc(O)c1)C(CO)Cc1cccc(O)c1` (stereo not drawn) [enterodiol, 2,3-bis-(3′-hydroxybenzyl)-butane-1,4-diol], in assay [1] (setting [8]), the IC50 is 12.7 µM. The “Inhibition of aromatization” value at aromatase is recorded as “noninhibitory”.

Turning to `O=C1OCC(Cc2cccc(O)c2)C1Cc1cccc(O)c1` (stereo not drawn) [enterolactone, 2,3-bis-(3′-hydroxybenzyl)-butyrolactone], in [1] (setting [8]), the IC50 was 15.9 µM. Also, the “Inhibition of aromatization” value on aromatase is recorded as “dose-dependent inhibition”. Further, the “Estrogenic potency in MCF-7 cells” value in the assay on MCF-7 cells is recorded as “weak estrogenic potency”. Moreover, in the assay with mouse uterine weight, the “Estrogenic response in mouse uterine weight” value is listed as “no estrogenic response”. As for `COc1ccc(-c2oc3cc(O)cc(O)c3c(=O)c2O)cc1` [kaempferide, 3,5,7-trihydroxy-4′-methoxy-flavone], in assay [1] (setting [8]), the IC50 amounted to 0.5 µM.

In the case of `O=c1c(O)c(-c2ccc(O)cc2)oc2cc(O)cc(O)c12` [kaempferol, 3,4′,5,7-tetrahydroxy-flavone], the IC50 in assay [1] (setting [8]) stood at 0.9 µM. The same measure, in the same setting: under `O=c1c(O)c(-c2ccc(O)c(O)c2)oc2cc(O)cc(O)c12` [quercetin, 3,3′,4′,5,7-pentahydroxy-flavone] stands 0.4 µM.

For the molecule secoisolariciresinol-diglycoside [SDG], the “Development of DMBA-induced breast cancer” value in [5] is listed as “prevented the development”. For the same molecule, the “Formation of chemically induced aberrant crypts in rat colon” value in [6] is given as “inhibited the formation”. Also, the Uterine weight entry in the assay on uterine weight is “increased the uterine weight at weaning”.

Source of the values: patent US7005447B2, “Food product comprising hydroxymatairesinol” (Hormos Nutraceutical Oy Ltd., priority 1999, dated 2006).
